Reference: patent publication US20050239717A1, “Higher fullerenes useful as radical scavengers” (Nano-C, Inc., priority 2003, published 2005)

Test: Radical scavenging efficiency test: cigarette smoke bubbled through coarse glass frit into decalin with scavenger, DHR 6G fluorescent probe
Settings: 150 μM to 300 μM, FIG. 6B
Protocol: Tests were conducted to study the effectiveness of higher fullerenes against radicals present in cigarette smoke (predominantly peroxyl radical). The cigarette smoke was bubbled through a cylindrical, coarse glass frit into a solvent (decalin) in which radical scavengers were dissolved. The smoke then exited this solvent and was passed through a second flask, in which a fluorescent probe that fluoresces upon oxidation by radicals was used (Dihydrorhodamine 6G (DHR 6G), purchased from Molecular Probes). The variation of fluorescent signal corresponds directly to the radical content of the cigarette smoke, and thus a measure of the reduction of radicals by the radical scavenger is measured. Signals were measured every 10 seconds.
Tests were conducted to study the sensitivity of the test apparatus in Example 2 to varying concentrations of Vitamin E as a radical scavenger to scavenge radicals present in cigarette smoke (predominantly peroxyl radical). The cigarette smoke was bubbled through a cylindrical, coarse glass frit into a solvent (decalin) in which radical scavengers were dissolved. […] The variation of fluorescent signal corresponds directly to the radical content of the cigarette smoke, and thus a measure of the reduction of radicals by the radical scavenger is measured. Signals were measured every 10 seconds.

## Vitamin E
  Change of fluorescence signal on doubling the scavenger concentration: very small deflection
